The subject of assay [1] is hERβ. As to conditions: relative binding affinity, estradiol = 100; cited from earlier work.
In assay [2] the test system is estrogen receptor preparations from rat prostates. Description: Competitive binding with 3H-estradiol to estrogen receptor from rat prostate cytosol.
For assay [3], the system named is hERβ. Description: Relative binding affinity (RBA) to hERβ, cited from Kuiper et al. On the set-up: species or system human. Particulars: quotient of RBA to hERβ and hERα. From the text: In this case, it is assumed that ERβ predominates in the rat prostates over ERα, and ERα predominates in rat uteri over ERβ.

The values below come from patent US20040029847A1 (priority 2003, published 2004).

In the case of `C[C@]12CC[C@@H]3c4ccc(O)cc4CC[C@H]3[C@@H]1C[C@@H](O)[C@@H]2O` [Estriol], the “hERβ RBA*” value in assay [1] was 21.
For the compound Estradiol, the “Rat prost. ER(RBA)” value in assay [2] (rat prostate cytosol, 3H-estradiol as ligand, estradiol = 100) amounted to 100. Also, the “prost. ER/uterus ER” value in assay [2] (ratio of RBA at rat prostate ER to rat uterus ER) worked out at 1. For the same compound, the “hERβ RBA*” value in assay [1] is 100. In assay [3], this compound came in with an ERβ/ERα of 1.
